Measurements reported in PubChem BioAssay AID248 (DTP/NCI, 2004).
Inconclusive results and toxic doses are left out. Cut-off read from the data, not from the text of the source: active = T/C of 150% or more; inactive = T/C below 125%.

Tested on: L1210 leukemia ip in BDF1 mice, survival T/C
Assay: NCI In Vivo Anticancer Drug Screen. Data for tumor model L1210 Leukemia (intraperitoneal) in B6D2F1 (BDF1) mice
Conditions: endpoint: mean survival time, higher = longer survival
Outline: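 Ratio derived from survival: compound-dosed mice over vehicle-dosed mice, all bearing a transplantable tumor.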

[1] = dose: 100.0 mg/kg/injection, schedule: Q04DX003 (ip), vehicle: saline
[2] = dose: 200.0 mg/kg/injection, schedule: Q04DX003 (ip), vehicle: saline
[3] = dose: 50.0 mg/kg/injection, schedule: Q01DX009 (ip), vehicle: saline with Tween-80
[4] = dose: 100.0 mg/kg/injection, schedule: Q01DX009 (ip), vehicle: saline with Tween-80
[5] = dose: 200.0 mg/kg/injection, schedule: Q01DX009 (ip), vehicle: saline with Tween-80
[6] = dose: 100.0 mg/kg/injection, schedule: Q01DX009 (ip), vehicle: Klucel (hydroxypropylcellulose) (HPC)
[7] = dose: 100.0 mg/kg/injection, schedule: Q04DX003 (ip), vehicle: Klucel (hydroxypropylcellulose) (HPC)
[8] = dose: 200.0 mg/kg/injection, schedule: Q01DX009 (ip), vehicle: Klucel (hydroxypropylcellulose) (HPC)
[9] = dose: 200.0 mg/kg/injection, schedule: Q04DX003 (ip), vehicle: Klucel (hydroxypropylcellulose) (HPC)
[10] = dose: 400.0 mg/kg/injection, schedule: Q04DX003 (ip), vehicle: Klucel (hydroxypropylcellulose) (HPC)
[11] = dose: 100.0 mg/kg/injection, schedule: Q01DX001 (ip), vehicle: saline with Tween-80
[12] = dose: 200.0 mg/kg/injection, schedule: Q01DX001 (ip), vehicle: saline with Tween-80
[13] = dose: 400.0 mg/kg/injection, schedule: Q01DX001 (ip), vehicle: saline with Tween-80
[14] = dose: 100.0 mg/kg/injection, schedule: Q01DX001 (ip), vehicle: carboxymethylcellulose (CMC)
[15] = dose: 200.0 mg/kg/injection, schedule: Q01DX001 (ip), vehicle: carboxymethylcellulose (CMC)
[16] = dose: 400.0 mg/kg/injection, schedule: Q01DX001 (ip), vehicle: carboxymethylcellulose (CMC)
[17] = dose: 400.0 mg/kg/injection, schedule: Q01DX009 (ip), vehicle: Klucel (hydroxypropylcellulose) (HPC)
[18] = dose: 100.0 mg/kg/injection, schedule: Q04DX002 (ip), vehicle: Klucel (hydroxypropylcellulose) (HPC)
[19] = dose: 200.0 mg/kg/injection, schedule: Q04DX002 (ip), vehicle: Klucel (hydroxypropylcellulose) (HPC)
[20] = dose: 400.0 mg/kg/injection, schedule: Q04DX002 (ip), vehicle: Klucel (hydroxypropylcellulose) (HPC)

Measured: T/C

c1cc[c]([Sn]([c]2ccccc2)([c]2ccccc2)[CH]2CCCCC2)cc1
inactive: [1] 89 % of control | [2] 93 % of control | dose: 400.0 mg/kg/injection, schedule: Q04DX003 (ip), vehicle: saline 89 % of control

Cc1ncc2c(=O)[nH]ccn12
inactive: dose: 100.0 mg/kg/injection, schedule: Q04DX003 (ip), vehicle: water 103 % of control | dose: 200.0 mg/kg/injection, schedule: Q04DX003 (ip), vehicle: water 103 % of control | dose: 400.0 mg/kg/injection, schedule: Q04DX003 (ip), vehicle: water 103 % of control

O=S(=O)(CCCCl)Nc1ccccn1
inactive: dose: 100.0 mg/kg/injection, schedule: Q04DX002 (ip), vehicle: saline with Tween-80 100 % of control | dose: 200.0 mg/kg/injection, schedule: Q04DX002 (ip), vehicle: saline with Tween-80 93 % of control | dose: 400.0 mg/kg/injection, schedule: Q04DX002 (ip), vehicle: saline with Tween-80 93 % of control

CC1CCCC(C[N+](C)(C)C)C1=O (centres undefined)
inactive: [1] 93 % of control | [2] 101 % of control

COC(=O)/C=C(\C)Nc1ccc(C(C)=O)cc1
inactive: dose: 100.0 mg/kg/injection, schedule: Q04DX003 (ip), vehicle: acetone 96 % of control | dose: 200.0 mg/kg/injection, schedule: Q04DX003 (ip), vehicle: acetone 94 % of control | dose: 400.0 mg/kg/injection, schedule: Q04DX003 (ip), vehicle: acetone 94 % of control

CSc1ccc(OC(=O)Nc2ccccc2F)cc1
inactive: [3] 108 % of control | [4] 103 % of control

O=C(Nc1nccs1)Nc1ccc(Cl)cc1Cl
inactive: [3] 91 % of control | [4] 98 % of control | [5] 109 % of control

C[Si](C)(C)c1c(F)c(F)c(F)c(F)c1F
inactive: [4] 102 % of control | [5] 94 % of control | dose: 400.0 mg/kg/injection, schedule: Q01DX009 (ip), vehicle: saline with Tween-80 97 % of control

Cc1ccc(C)c(NC(=O)Nc2c(C)n(C)n(-c3ccccc3)c2=O)c1
inactive: [6] 96 % of control | [7] 97 % of control | [8] 95 % of control | [9] 89 % of control | [10] 93 % of control

CCC1=C(C)C(=O)Nc2c3ncnc-3ncn2C1O (centres undefined)
inactive: [11] 100 % of control | [12] 105 % of control | [13] 103 % of control

N#Cc1cc2ccccc2nc1N
inactive: [14] 98 % of control | [15] 93 % of control | [16] 98 % of control

O=C(/C=C/c1ccco1)c1cccc([N+](=O)[O-])c1
inactive: [11] 97 % of control | [12] 95 % of control | [13] 92 % of control

O=C(Oc1ccccc1)C(Cc1ccccc1)(Cc1ccccc1)C(=O)Oc1ccccc1
inactive: [14] 101 % of control | [15] 95 % of control | [16] 93 % of control

CCS(=O)(=O)/C=C(\C(=O)c1ccccc1)c1ccccc1
inactive: [6] 98 % of control | [8] 97 % of control | [17] 93 % of control

NOC(=O)c1ccc([N+](=O)[O-])cc1
inactive: [18] 94 % of control | [19] 94 % of control | [20] 94 % of control

Cc1cccc(C)c1NC(=O)Nc1cccc(Cl)c1
inactive: [6] 93 % of control | [7] 94 % of control | [8] 93 % of control | [9] 89 % of control | [17] 92 % of control | [10] 89 % of control

C=C1C(=O)OC2C1CCC(C)C1(O)C=CC(=O)C21C (centres undefined)
inactive: dose: 6.25 mg/kg/injection, schedule: Q01DX009 (ip), vehicle: saline 98 % of control | dose: 12.5 mg/kg/injection, schedule: Q01DX009 (ip), vehicle: saline 98 % of control | dose: 25.0 mg/kg/injection, schedule: Q01DX009 (ip), vehicle: saline 101 % of control | dose: 50.0 mg/kg/injection, schedule: Q01DX009 (ip), vehicle: saline 103 % of control

CSc1ccc(OCC2CO2)cc1C (centres undefined)
inactive: dose: 100.0 mg/kg/injection, schedule: Q04DX002 (ip), vehicle: saline 96 % of control | dose: 200.0 mg/kg/injection, schedule: Q04DX002 (ip), vehicle: saline 111 % of control | dose: 400.0 mg/kg/injection, schedule: Q04DX002 (ip), vehicle: saline 104 % of control

C/C=C(\C)c1cc(=O)c2c(C)cc3c(c2o1)C(=O)c1c(O)c(C2CC(C)(N(C)C)C(O)C(C)O2)cc(C2CC(N(C)C)C(O)C(C)O2)c1C3=O (centres undefined)
inactive: [11] 120 % of control | [12] 114 % of control

CNC(=O)O/N=C\C=N\OC(=O)NC
inactive: dose: 100.0 mg/kg/injection, schedule: Q01DX001 (ip), vehicle: saline 93 % of control | dose: 200.0 mg/kg/injection, schedule: Q01DX001 (ip), vehicle: saline 98 % of control | dose: 400.0 mg/kg/injection, schedule: Q01DX001 (ip), vehicle: saline 95 % of control

Cc1cccc(C)c1OC(=O)NC1CCCCC1
inactive: [18] 107 % of control | [19] 89 % of control | [20] 96 % of control

CCCCCCCCCCNCCS
inactive: dose: 4.0 mg/kg/injection, schedule: Q01DX015 (ip), vehicle: carboxymethylcellulose (CMC) 105 % of control | dose: 5.0 mg/kg/injection, schedule: Q01DX001 (ip), vehicle: carboxymethylcellulose (CMC) 109 % of control | dose: 5.0 mg/kg/injection, schedule: Q04DX003 (ip), vehicle: saline sonified 101 % of control | dose: 8.0 mg/kg/injection, schedule: Q01DX015 (ip), vehicle: carboxymethylcellulose (CMC) 103 % of control | dose: 10.0 mg/kg/injection, schedule: Q01DX001 (ip), vehicle: carboxymethylcellulose (CMC) 103 % of control | dose: 10.0 mg/kg/injection, schedule: Q04DX003 (ip), vehicle: saline sonified 101 % of control | dose: 16.0 mg/kg/injection, schedule: Q01DX015 (ip), vehicle: carboxymethylcellulose (CMC) 101 % of control | dose: 20.0 mg/kg/injection, schedule: Q04DX003 (ip), vehicle: saline sonified 101 % of control | dose: 32.0 mg/kg/injection, schedule: Q01DX015 (ip), vehicle: carboxymethylcellulose (CMC) 103 % of control

CCOC(=O)C(Cc1ccc(Cl)cc1)(Cc1ccc(Cl)cc1)C(=O)OCC
inactive: [6] 100 % of control | [7] 92 % of control | [8] 98 % of control | [9] 92 % of control | [17] 102 % of control | [10] 94 % of control

O=C(NC(CSC(=O)c1ccccc1)C(=O)O)OCc1ccccc1 (centres undefined)
inactive: [6] 104 % of control | [7] 101 % of control | [8] 93 % of control | [9] 95 % of control | [10] 95 % of control

CN(C)C(N1CC1)N1CC1
inactive: dose: 10.0 mg/kg/injection, schedule: Q04DX002 (ip), vehicle: saline 112 % of control | dose: 20.0 mg/kg/injection, schedule: Q04DX002 (ip), vehicle: saline 108 % of control | dose: 40.0 mg/kg/injection, schedule: Q04DX002 (ip), vehicle: saline 97 % of control

N=C(N)N=Nc1c(O)[nH]c(=O)[nH]c1=O
inactive: dose: 15.0 mg/kg/injection, schedule: Q01DX Z (ip), vehicle: carboxymethylcellulose (CMC) 98 % of control | dose: 30.0 mg/kg/injection, schedule: Q01DX Z (ip), vehicle: carboxymethylcellulose (CMC) 98 % of control | dose: 60.0 mg/kg/injection, schedule: Q01DX Z (ip), vehicle: carboxymethylcellulose (CMC) 93 % of control | dose: 60.0 mg/kg/injection, schedule: Q01DX Z (oral), vehicle: carboxymethylcellulose (CMC) 110 % of control | dose: 120.0 mg/kg/injection, schedule: Q01DX Z (ip), vehicle: carboxymethylcellulose (CMC) 97 % of control | dose: 120.0 mg/kg/injection, schedule: Q01DX Z (oral), vehicle: carboxymethylcellulose (CMC) 108 % of control | dose: 240.0 mg/kg/injection, schedule: Q01DX Z (oral), vehicle: carboxymethylcellulose (CMC) 104 % of control | dose: 480.0 mg/kg/injection, schedule: Q01DX Z (oral), vehicle: carboxymethylcellulose (CMC) 108 % of control

CC(C)(CCl)COS(=O)(=O)c1ccc(Br)cc1
inactive: [3] 90 % of control | [4] 90 % of control
